Experimental data as given in patent publication US9593149B2, “Amylin and calcitonin receptor agonist” (Novo Nordisk A/S, priority 2014, dated 2017).
Converted amounts (≈) assume the structure as drawn. Numbered stars: 1 amine (or outer) side, 2 acyl side, 3 side chain; on linkers, the order of the positions; unused ones are H or OH. Peptide text beside a SMILES is read from it. * marks the point of attachment. C20 diacid = O=C(O)CCCCCCCCCCCCCCCCCCC(=O)*; C18 diacid = O=C(O)CCCCCCCCCCCCCCCCC(=O)*; γGlu = O=C(O)[C@H](CCC(=O)[*:2])N[*:1]

Assay: Assay (IV) determination of solubility
Type: physicochemical
Experimental: Assay (IV)—Determination of Solubility
The mimylin peptide was dissolved in water at ˜500 nmol/ml and mixed 1:1 with a series of buffers (100 mM glycylglycine pH 3.0, 100 mM glycylglycine pH 4.0, 100 mM glycylglycine pH 5.0, 100 mM bistrispropane pH 6.0, 100 mM bistrispropane pH 6.5, 100 mM bistrispropane pH 7.0, 100 mM bistrispropane pH 7.5, 100 mM bistrispropane pH 8.0).

Row | Solubility (pH 3.0) | Solubility (pH 4.0) | solubility at 18 h (pH 5.0) | Solubility (pH 6.0) | Solubility (pH 6.5) | Solubility (pH 7.0) | Solubility (pH 7.5) | Solubility (pH 8.0) | solubility at 18 h (pH 4.0) | Solubility (pH 5.0) | SMILES
1 | ≧200 μM | ≧200 μM | 2 µM (≈ 7.64 µg/mL) | ≧200 μM | ≧200 μM | ≧200 μM | ≧200 μM | ≧200 μM |  |  | CC(C)C[C@H](NC(=O)CC[C@H](NC(=O)CCCCCCCCCCCCCCCCCCC(=O)O)C(=O)O)C(=O)N[C@@H](CO)C(=O)NCC(=O)N[C@@H](CC(C)C)C(=O)N[C@@H](CO)C(=O)N[C@H](C(=O)N[C@@H](C)C(=O)N[C@H](C(=O)N[C@@H](CC(C)C)C(=O)NCC(=O)N[C@@H](CCCNC(=N)N)C(=O)N[C@@H](CC(C)C)C(=O)N[C@@H](CO)C(=O)N[C@@H](C)C(=O)N[C@@H](CCC(=O)O)C(=O)N[C@@H](CC(C)C)C(=O)N[C@@H](Cc1cnc[nH]1)C(=O)N[C@@H](CCC(=O)O)C(=O)N[C@@H](CC(C)C)C(=O)N[C@@H](CO)C(=O)N[C@H](C(=O)N[C@@H](Cc1ccc(O)cc1)C(=O)N1CCC[C@H]1C(=O)N[C@@H](CCCNC(=N)N)C(=O)N[C@H](C(=O)N[C@@H](CCC(=O)O)C(=O)N[C@H](C(=O)NCC(=O)N[C@@H](CO)C(=O)NCC(=O)N[C@H](C(=O)N[C@@H](Cc1ccc(O)cc1)C(N)=O)[C@@H](C)O)[C@@H](C)O)[C@@H](C)O)[C@@H](C)O)C(C)C)[C@@H](C)O [compound 123, [N-terminal(C20 diacid-gGlu), des1, 2L, 4G, 9V, 21S, 23Y, 30S, 31G, 32T, 33Y]mimylin] ({C20 diacid-γGlu}-LSGLSTAVLGRLSAELHELSTYPRTETGSGTY-NH2)
2 | ≧200 μM |  | 9 µM (≈ 38.6 µg/mL) | ≧200 μM | ≧200 μM | ≧200 μM | ≧200 μM | ≧200 μM | 174 µM (≈ 746 µg/mL) |  | CC(C)C[C@H](NC(=O)CNC(=O)[C@H](CO)NC(=O)[C@H](C)NC(=O)CC[C@H](NC(=O)CCCCCCCCCCCCCCCCCCC(=O)O)C(=O)O)C(=O)N[C@@H](CO)C(=O)N[C@H](C(=O)N[C@@H](C)C(=O)N[C@H](C(=O)N[C@@H](CC(C)C)C(=O)NCC(=O)N[C@@H](CCCNC(=N)N)C(=O)N[C@@H](CC(C)C)C(=O)N[C@@H](CO)C(=O)N[C@@H](CCC(N)=O)C(=O)N[C@@H](CCC(=O)O)C(=O)N[C@@H](CC(C)C)C(=O)N[C@@H](Cc1cnc[nH]1)C(=O)N[C@@H](CCC(=O)O)C(=O)N[C@@H](CC(C)C)C(=O)N[C@@H](CCC(N)=O)C(=O)N[C@H](C(=O)N[C@@H](CC(C)C)C(=O)N[C@@H](CCC(N)=O)C(=O)N[C@H](C(=O)N[C@@H](Cc1ccc(O)cc1)C(=O)N1CCC[C@H]1C(=O)N[C@@H](CCCNC(=N)N)C(=O)N[C@H](C(=O)N[C@@H](CCC(=O)O)C(=O)N[C@H](C(=O)NCC(=O)N[C@@H](CO)C(=O)N[C@@H](CCC(N)=O)C(=O)N[C@H](C(=O)N[C@@H](Cc1ccc(O)cc1)C(N)=O)[C@@H](C)O)[C@@H](C)O)[C@@H](C)O)[C@@H](C)O)[C@@H](C)O)C(C)C)[C@@H](C)O [compound 130, [N-terminal(C20 diacid-gGlu), des1, 4G, 9V, 15Q, 21Q, 23aQ, 23bT, 23cY, 30S, 31Q, 32T, 33Y]mimylin] ({C20 diacid-γGlu}-ASGLSTAVLGRLSQELHELQTLQTYPRTETGSQTY-NH2)
3 | ≧200 μM | ≧200 μM |  | ≧200 μM | ≧200 μM | ≧200 μM | ≧200 μM | ≧200 μM |  | ≧200 μM | CC(C)C[C@H](NC(=O)CNC(=O)[C@H](CO)NC(=O)[C@H](C)NC(=O)CC[C@H](NC(=O)CCCCCCCCCCCCCCCCCCC(=O)O)C(=O)O)C(=O)N[C@@H](CO)C(=O)N[C@H](C(=O)N[C@@H](C)C(=O)N[C@@H](C)C(=O)N[C@@H](CC(C)C)C(=O)NCC(=O)N[C@@H](CCCNC(=N)N)C(=O)N[C@@H](CC(C)C)C(=O)N[C@@H](CO)C(=O)N[C@@H](C)C(=O)N[C@@H](CCC(=O)O)C(=O)N[C@@H](CC(C)C)C(=O)N[C@@H](Cc1cnc[nH]1)C(=O)N[C@@H](CCC(=O)O)C(=O)N[C@@H](CC(C)C)C(=O)N[C@@H](C)C(=O)N[C@H](C(=O)N[C@@H](Cc1ccc(O)cc1)C(=O)N1CCC[C@H]1C(=O)N[C@@H](CCCNC(=N)N)C(=O)N[C@H](C(=O)N[C@@H](CCC(=O)O)C(=O)N[C@H](C(=O)NCC(=O)N[C@@H](CO)C(=O)NCC(=O)N[C@@H](CO)C(=O)N1CCC[C@H]1C(N)=O)[C@@H](C)O)[C@@H](C)O)[C@@H](C)O)[C@@H](C)O [compound 79, [N-terminal(C20 diacid-gGlu), des1, 4G, 23Y, 30S, 31G]mimylin] ({C20 diacid-γGlu}-ASGLSTAALGRLSAELHELATYPRTETGSGSP-NH2)
4 | ≧200 μM | ≧200 μM |  | ≧200 μM | ≧200 μM | ≧200 μM | ≧200 μM | ≧200 μM |  | ≧200 μM | CC[C@H](C)[C@H](NC(=O)[C@H](CCC(=O)O)NC(=O)[C@H](Cc1cnc[nH]1)NC(=O)[C@H](CC(C)C)NC(=O)[C@H](CCC(=O)O)NC(=O)[C@H](C)NC(=O)[C@H](CO)NC(=O)[C@H](CC(C)C)NC(=O)[C@H](CCCNC(=N)N)NC(=O)CNC(=O)[C@H](CC(C)C)NC(=O)[C@H](C)NC(=O)[C@H](C)NC(=O)[C@@H](NC(=O)[C@H](CO)NC(=O)[C@H](CC(C)C)NC(=O)[C@H](CCC(=O)O)NC(=O)[C@H](CO)NC(=O)[C@H](C)NC(=O)[C@H](CCC(=O)O)NC(=O)CCCCCCCCCCCCCCCCC(=O)O)[C@@H](C)O)C(=O)N[C@@H](C)C(=O)N[C@H](C(=O)N[C@@H](CC(C)C)C(=O)N1CCC[C@H]1C(=O)N[C@@H](CCCNC(=N)N)C(=O)N[C@H](C(=O)N[C@@H](CCC(=O)O)C(=O)N[C@H](C(=O)NCC(=O)N1CCC[C@H]1C(=O)N[C@@H](CCC(=O)O)C(=O)N[C@@H](CO)C(=O)N1CCC[C@H]1C(N)=O)[C@@H](C)O)[C@@H](C)O)[C@@H](C)O [compound 12, [N-terminal(C18 diacid), 20I]mimylin] ({C18 diacid}-EASELSTAALGRLSAELHEIATLPRTETGPESP-NH2)
5 | ≧200 μM | ≧200 μM |  | ≧200 μM | ≧200 μM | ≧200 μM | ≧200 μM | ≧200 μM |  | ≧200 μM | CC(C)C[C@H](NC(=O)[C@H](C)NC(=O)[C@H](C)NC(=O)[C@@H](NC(=O)[C@H](CO)NC(=O)[C@H](CC(C)C)NC(=O)[C@H](CCC(=O)O)NC(=O)[C@H](CO)NC(=O)[C@H](C)NC(=O)CC[C@H](NC(=O)CCCCCCCCCCCCCCCCCCC(=O)O)C(=O)O)[C@@H](C)O)C(=O)NCC(=O)N[C@@H](CCCNC(=N)N)C(=O)N[C@@H](CC(C)C)C(=O)N[C@@H](CO)C(=O)N[C@@H](C)C(=O)N[C@@H](CCC(=O)O)C(=O)N[C@@H](CC(C)C)C(=O)N[C@@H](Cc1cnc[nH]1)C(=O)N[C@@H](CCC(=O)O)C(=O)N[C@@H](CC(C)C)C(=O)N[C@@H](C)C(=O)N[C@H](C(=O)N[C@@H](CC(C)C)C(=O)N1CCC[C@H]1C(=O)N[C@@H](CCCNC(=N)N)C(=O)N[C@H](C(=O)N[C@@H](CCC(=O)O)C(=O)N[C@H](C(=O)NCC(=O)N[C@@H](CO)C(=O)NCC(=O)N[C@@H](CO)C(=O)N[C@@H](CO)C(N)=O)[C@@H](C)O)[C@@H](C)O)[C@@H](C)O [compound 63, [N-terminal(C20 diacid-gGlu), des1, 30S, 31G, 33S]mimylin] ({C20 diacid-γGlu}-ASELSTAALGRLSAELHELATLPRTETGSGSS-NH2)
6 | ≧200 μM | ≧200 μM |  | ≧200 μM | ≧200 μM | ≧200 μM | ≧200 μM | ≧200 μM |  | ≧200 μM | CC(C)C[C@H](NC(=O)[C@H](C)NC(=O)[C@H](C)NC(=O)[C@@H](NC(=O)[C@H](CO)NC(=O)[C@H](CC(C)C)NC(=O)[C@H](CCC(=O)O)NC(=O)[C@H](CO)NC(=O)[C@H](C)NC(=O)CC[C@H](NC(=O)CCCCCCCCCCCCCCCCCCC(=O)O)C(=O)O)[C@@H](C)O)C(=O)NCC(=O)N[C@@H](CCCNC(=N)N)C(=O)N[C@@H](CC(C)C)C(=O)N[C@@H](CO)C(=O)N[C@@H](C)C(=O)N[C@@H](CCC(=O)O)C(=O)N[C@@H](CC(C)C)C(=O)N[C@@H](Cc1cnc[nH]1)C(=O)N[C@@H](CCC(=O)O)C(=O)N[C@@H](CC(C)C)C(=O)N[C@@H](C)C(=O)N[C@H](C(=O)N[C@@H](CC(C)C)C(=O)N1CCC[C@H]1C(=O)N[C@@H](CCCNC(=N)N)C(=O)N[C@H](C(=O)N[C@@H](CCC(=O)O)C(=O)N[C@H](C(=O)NCC(=O)N[C@@H](CO)C(=O)NCC(=O)N[C@@H](CO)C(=O)N[C@@H](C)C(N)=O)[C@@H](C)O)[C@@H](C)O)[C@@H](C)O [compound 65, [N-terminal(C20 diacid-gGlu), des1, 30S, 31G, 33A]mimylin] ({C20 diacid-γGlu}-ASELSTAALGRLSAELHELATLPRTETGSGSA-NH2)
